Data: publication PMC7284416, “The Product Specificities of Maize Terpene Synthases TPS4 and TPS10 Are Determined Both by Active Site Amino Acids and Residues Adjacent to the Active Site” (Plants, 2020)
Residue numbers refer to the chain shown, from its start.

B1: TPS4 (tps4-B73) (Zea mays) (protein)
chain: SSTFHPSLWGSFFLTYQPPTAPQRANMKERAEVLRERVRKVLKGSTTDQLPETVNLILTLQRLGLGYYYENEIDKLLHQIYSNSDYNVKDLNLVSQRFYLLRKNGYDVPSDVFLSFKTEEGGFACAAADTRSLLSLYNAAYLRKHGEEVLDEAISSTRLRLQDLLGRLLPESPFAKEVSSSLRTPLFRRVGILEARNYIPIYETEATRNEAVLELAKLNFNLQQLDFCEELKHCSAWWNEMIAKSKLTFVRDRIVEEYFWMNGACYDPPYSLSRIILTKITGLITIIDDMFDTHGTTEDCMKFAEAFGRWDESAIHLLPEYMKDFYILMLETFQSFEDALGPEKSYRVLYLKQAMERLVELYSKEIKWRDDDYVPTMSEHLQVSAETIATIALTCSAYAGMGDMSIRKETFEWALSFPQFIRTFGSFVRLSNDVVSTKREQTKDHSPSTVHCYMKEHGTTMDDACEKIKELIEDSWKDMLEQSLALKGLPKVVPQLVFDFSRTTDNMYRDRDALTSSEALKEMIQLLFVEPIPE
notes: expressed in E. coli BL21(DE3) from pHIS8-3, N-terminal His8 tag kept, Ni-NTA purified; forward primer starts the ORF at codons for SSTFHPSL, native C-terminus FVEPIPE

Experiments:
TPS10 (tps10-B73) = biological target: T1, TPS10 (tps10-B73) (Zea mays, UniProt Q2NM15); assay: [[…]-3H]FPP turnover, pentane-extracted products, scintillation counting; type: biochemical; details: 10 mM MgCl2, 10 mM Mopso pH 7.0, 1 mM DTT, 10% glycerol, 30 °C; labelled compound
T1 construct: expressed in E. coli BL21(DE3) from pHIS8-3 (NcoI/EcoRI), His tag kept, Ni-NTA purified; printed forward primer codes for MPPPS at the N-terminus
T1 sequence (Q2NM15 1-533): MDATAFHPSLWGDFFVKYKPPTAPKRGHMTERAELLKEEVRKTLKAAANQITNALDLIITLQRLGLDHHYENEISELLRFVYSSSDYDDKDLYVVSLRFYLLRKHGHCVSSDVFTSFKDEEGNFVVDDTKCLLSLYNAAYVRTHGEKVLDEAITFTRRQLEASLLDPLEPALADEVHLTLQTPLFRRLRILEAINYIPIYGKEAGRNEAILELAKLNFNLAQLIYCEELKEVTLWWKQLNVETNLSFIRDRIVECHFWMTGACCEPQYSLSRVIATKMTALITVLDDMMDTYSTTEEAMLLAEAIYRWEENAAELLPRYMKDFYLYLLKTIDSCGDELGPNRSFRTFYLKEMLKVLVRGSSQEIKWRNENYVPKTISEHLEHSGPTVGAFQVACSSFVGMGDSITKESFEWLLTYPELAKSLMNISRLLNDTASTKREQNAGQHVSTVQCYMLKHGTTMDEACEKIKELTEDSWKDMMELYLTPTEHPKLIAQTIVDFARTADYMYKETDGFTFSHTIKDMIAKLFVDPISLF

TPS4 (tps4-B73) [1] = biological target: T2, TPS4 (tps4-B73) (Zea mays, UniProt Q6JD73); assay: as above; type: biochemical; details: 10 mM MgCl2, 10 mM Mopso pH 7.0, 1 mM DTT, 10% glycerol, 30 °C; labelled compound; read-out: TPS4-c17
T2 construct: expressed in E. coli BL21(DE3) from pHIS8-3, N-terminal His8 tag kept, Ni-NTA purified; forward primer starts the ORF at codons for SSTFHPSL, native C-terminus FVEPIPE
T2 sequence (Q6JD73 21-554): B1 chain

TPS4 (tps4-B73) [2] = biological target: T3, TPS4 (tps4-B73) (Zea mays, UniProt Q6JD73, I411F/R442K, form not given); assay: as above; type: biochemical; details: 10 mM MgCl2, 10 mM Mopso pH 7.0, 1 mM DTT, 10% glycerol, 30 °C; labelled compound; read-out: TPS4-c17 R442K + I411F
T3 construct: expressed in E. coli BL21(DE3) from pHIS8-3, N-terminal His8 tag kept, Ni-NTA purified; forward primer starts the ORF at codons for SSTFHPSL, native C-terminus FVEPIPE
T3 sequence (Q6JD73 21-554 I411F/R442K): B1 chain with I391F, R422K

purified protein = substrate: CC(C)=CCC/C(C)=C/CC/C(C)=C/CO[P@@](=O)(O)OP(=O)(O)O; assay: purified protein; type: biochemical, Zea mays; details: 10 mM MgCl2, 10 mM Mopso pH 7.0, 1 mM DTT, 10% glycerol, 30 °C, labelled compound

Row | Molecule | Km (TPS10 (tps10-B73)) [µM] | Km (TPS4 (tps4-B73) [1]) [µM] | Km (TPS4 (tps4-B73) [2]) [µM] | Km (purified protein) [µM] | kcat (purified protein) [s⁻¹]
1 | CC(C)=CCC/C(C)=C/CC/C(C)=C/CO[P@@](=O)(O)OP(=O)(O)O [(E,E)-farnesyl diphosphate] | 3.2 ± 0.5 | 2.1 ± 0.3 | 2.3 ± 0.3 |  | 
2 | B1 |  |  |  | 3.8 ± 0.5 | 0.0105 ± 0.0006
